# Read-outs that look alike come from different tables or passages of the source.
# Tests used:
# [1] = tested on: Platelet poor plasma; assay: Blood clotting time in vitro (APTT, PT, TT); type: biochemical, rats; conditions: PT and TT tests, final concentration 0.05 mg/mL
# Procedure: Rats were anaesthetized with 10% chloral hydrate (3 mL/kg). The blood obtained from the abdominal aorta was collected directly into citrated tubes containing 3.8% sodium citrate (1:9 (v/v)) and was used immediately after collection. Platelet poor plasma […] was prepared by centrifuging the blood at 3000 rpm for 20 min at 20 °C [24]. Plasma samples with jaundice, chylus, hemolysis and blood clot were excluded prior to the assays. Plasma mixtures were 90 μL of PRP with 10 μL of tested compounds (0.5 mg/mL, dissolved in DMSO). For PRP in the solvent group, the sample was 90 μL of PRP with 10 μL of DMSO. For PRP in the normal control group, the plasma was not-treated PRP sample. For PRP in the heparin group, the sample was 90 μL of PRP with 10 μL of heparin (0.1 mg/mL), which was used as the positive control drug.
# Blood coagulation assays were carried out using a coagulation analyzer at the Blood Center clinical laboratory in the Second Hospital affiliated to Jilin University (Changchun, China). Measurements of APTT, PT and TT were performed according to the manufacturer’s recommended protocols. The anti-coagulant activity was expressed as clotting time ± standard deviation (S.D.). Briefly, for APTT assay, 50 μL of the plasma mixture was incubated at 37 °C for 60 s and the mixture was added to the APTT reagent (50 μL) and incubated at 37 °C for 15 min. Finally, APTT values were recorded. For the PT assay, 50 μL of the plasma mixture was incubated at 37 °C for 60 s and then added into the PT reagent (100 μL) prior to incubation at 37 °C for 15 min before the PT values were recorded. For the TT assay, 80 μL of the plasma mixture was incubated at 37 °C for 60 s before the addition of 80 μL of TT reagent for 100 s. TT values were determined by the coagulation analyzer.
# [2] = molecular target: T1, coagulation factor Xa (FXa) (Bos taurus, UniProt P00743); assay: FXa activity assay in vitro (chromogenic substrate method); type: biochemical
# T1 construct: purchased New England Biolabs (Hitchin, UK)
# T1 sequence (P00743 41-180): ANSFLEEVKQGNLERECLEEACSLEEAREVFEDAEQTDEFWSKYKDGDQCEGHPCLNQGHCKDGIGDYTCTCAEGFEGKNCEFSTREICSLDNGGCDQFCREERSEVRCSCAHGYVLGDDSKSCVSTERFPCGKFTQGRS
# T1 sequence (P00743 234-492): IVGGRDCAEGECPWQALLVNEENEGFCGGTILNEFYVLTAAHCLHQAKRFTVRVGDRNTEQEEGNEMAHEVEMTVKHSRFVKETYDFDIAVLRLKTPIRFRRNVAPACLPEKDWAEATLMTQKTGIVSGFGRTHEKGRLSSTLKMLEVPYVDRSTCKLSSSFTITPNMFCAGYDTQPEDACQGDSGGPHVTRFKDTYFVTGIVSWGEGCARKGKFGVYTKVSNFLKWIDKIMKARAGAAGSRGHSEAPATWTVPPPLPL
# Procedure: 10 µL of FXa (final concentration of 0.5 nM), 40 µL of Tris buffer (adjusted to pH 7.4 with HCl containing 0.3 M NaCl and 50 mM Tris) and 10 µL of test compounds were added to the well, respectively. The negative control was performed using the same mixed solutions except that the test compound was replaced with DMSO. […] After 15 min of incubation at 37 °C, FXa substrate (40 μL, final concentration of […]) was added and then was incubated 37 °C for 25 min [3]. The optical density (OD) values at 405 nm were evaluated by an automated microplate reader. […] Inhibition rate was calculated by the following formula: Anti-FXa activity = (V0 − Vi)/V0 [21]. The IC50 value was subsequently calculated by SPSS 19.0.
# [3] = tested on: FXa; parameters: method as in PMID 24412029, PMID 22216842; conditions: cited from earlier work
# [4] = tested on: thrombus; parameters: method as in PMID 24412029, PMID 22216842; conditions: rat models, orally administered; cited from earlier work
# [5] = molecular target: T2, human FIIa (thrombin) (Homo sapiens, UniProt P00734); assay: Thrombin inhibition in vitro (chromogenic substrate CS-01(38)); type: biochemical; conditions: pH 7.4, 37 °C, 405 nm
# T2 construct: purchased Hyphen BioMed (Paris, France)
# Procedure: The inhibition of thrombin was evaluated by human FIIa and chromogenic substrate CS-01(38) in 96-well microtiter plates at room temperature. Compounds 5, 13 and 18 as well as the positive reagent Ximelagatran were dissolved in DMSO to a concentration of 1mM and then serially diluted to a range of 10 μM to 100 μM, respectively. 8 μL of FIIa (3 NIH U/mL), 80 μL of Tris buffer (adjusted to pH 7.4 with HCl) containing 0.3 M NaCl and 50 mM Tris and 8 μL of test compounds were added to the well, respectively. The negative control was performed using the same mixed solutions except that tested compounds were replaced with DMSO. The positive control was performed using the same mixed solutions except that the test compounds were replaced with ximelagatran. After incubation at 37 °C for 15 min, 12 μL of FIIa substrate solution (4 mM) was added and then incubated at 37 °C for 25 min [3]. The anti-FIIa activity was measured at 405 nm using a microplate reader.
# [6] = tested on: blood coagulation; conditions: 0.05 mg/mL final concentration vs 0.1 mg/mL heparin; cited from earlier work
# [7] = FXa 0.5 nM, pH 7.4, 37 °C, OD 405 nm, read-out: IC50 against coagulation factor Xa (FXa)
compound,measurement,setting,value
20(R)-Rg3,In vitro anti-coagulation activity versus normal control,[1],insignificant anti-coagulation effects
ginsenoside Rg3,In vitro anti-coagulation activity versus normal control,[1],best bioactivity (p < 0.01)
"CC(C)=CCC[C@](C)(O)[C@H]1CC[C@]2(C)[C@@H]1[C@H](O)C[C@@H]1[C@@]3(C)CC[C@H](O)C(C)(C)[C@@H]3[C@@H](O[C@@H]3O[C@H](CO)[C@@H](O)[C@H](O)[C@H]3O)C[C@]12C [Rh1, ginsenoside Rh1]",IC50,[2],236 nM
same,In vitro anti-coagulation activity versus normal control,[1],significant anti-coagulation activity
CC1(C)[C@@H](O)CC[C@]2(C)[C@H]3C(=O)C=C4[C@@H]5C[C@@](C)(C(=O)O)CC[C@]5(C)CC[C@@]4(C)[C@]3(C)CC[C@@H]12 [glycyrrhetinic acid],Inhibition of FXa activity in vitro,[3],significantly inhibit FXa activity in vitro with specificity
same,Thrombus weight,[4],reduce thrombus weight
"CC(C)=CCCC(C)(O)C1CCC2(C)C1C(O)CC1C3(C)CCC(O)C(C)(C)C3CCC12C (centres unmarked) [PPD, protopanaxdiol]",IC50,[2]; [7],339 nM
same,In vitro anti-coagulation activity versus normal control,[1],significant anti-coagulation activity
"CC(C)=CCCC(C)(O)C1CCC2(C)C1C(O)CC1C3(C)CCC(O)C(C)(C)C3C(O)CC12C (centres unmarked) [PPT, protopanaxtriol]",IC50,[2]; [7],141 nM
same,IC50,[5],82000 nM
same,In vitro anti-coagulation activity versus normal control,[1],best bioactivity (p < 0.01)
"CC(C)=CCC[C@](C)(O)[C@H]1CC[C@]2(C)[C@@H]1[C@H](O)C[C@@H]1[C@@]3(C)CC[C@H](O)C(C)(C)[C@@H]3[C@@H](O[C@@H]3O[C@H](CO)[C@@H](O)[C@H](O)[C@H]3O[C@@H]3O[C@@H](C)[C@H](O)[C@@H](O)[C@H]3O)C[C@]12C [Rg2, ginsenoside Rg2]",IC50,[2]; [7],136 nM
same,IC50,[5],81300 nM
same,In vitro anti-coagulation activity versus normal control,[1],best bioactivity (p < 0.01)
same,Anti-coagulant activities in vitro compared to heparin,[6],significantly better anti-coagulant activities
"CC(C)=CCC[C@](C)(O[C@@H]1O[C@H](CO)[C@@H](O)[C@H](O)[C@H]1O)[C@H]1CC[C@]2(C)[C@@H]1[C@H](O)C[C@@H]1[C@@]3(C)CC[C@H](O)C(C)(C)[C@@H]3[C@@H](O)C[C@]12C [F1, ginsenoside F1]",IC50,[2]; [7],227 nM
same,In vitro anti-coagulation activity versus normal control,[1],significant anti-coagulation activity
"CC(C)=CCC[C@](C)(O[C@@H]1O[C@H](CO)[C@@H](O)[C@H](O)[C@H]1O)[C@H]1CC[C@]2(C)[C@@H]1[C@H](O)C[C@@H]1[C@@]3(C)CC[C@H](O[C@@H]4O[C@H](CO)[C@@H](O)[C@H](O)[C@H]4O)C(C)(C)[C@@H]3CC[C@]12C [F2, ginsenoside F2]",IC50,[2]; [7],425 nM
same,In vitro anti-coagulation activity versus normal control,[1],significant anti-coagulation activity
"CC(C)=CCC[C@](C)(O)[C@H]1CC[C@]2(C)[C@@H]1[C@H](O)C[C@@H]1[C@@]3(C)CC[C@H](O[C@@H]4O[C@H](CO)[C@@H](O)[C@H](O)[C@H]4O)C(C)(C)[C@@H]3CC[C@]12C [Rh2, ginsenoside Rh2]",IC50,[2],349 nM
same,In vitro anti-coagulation activity versus normal control,[1],significant anti-coagulation activity
"CC(C)=CCC[C@](C)(O[C@@H]1O[C@H](CO)[C@@H](O)[C@H](O)[C@H]1O)[C@H]1CC[C@]2(C)[C@@H]1[C@H](O)C[C@@H]1[C@@]3(C)CC[C@H](O)C(C)(C)[C@@H]3[C@@H](O[C@@H]3O[C@H](CO)[C@@H](O)[C@H](O)[C@H]3O)C[C@]12C [Rg1, ginsenoside Rg1]",IC50,[2]; [7],335 nM
same,In vitro anti-coagulation activity versus normal control,[1],significant anti-coagulation activity
same,Anti-coagulant activities in vitro compared to heparin,[6],significantly better anti-coagulant activities
"CC(C)=CCC[C@](C)(O)[C@H]1CC[C@]2(C)[C@@H]1[C@H](O)C[C@@H]1[C@@]3(C)CC[C@H](O)C(C)(C)[C@@H]3[C@@H](O[C@@H]3O[C@H](CO)[C@@H](O)[C@H](O)[C@H]3O[C@@H]3O[C@H](CO)[C@@H](O)[C@H](O)[C@H]3O)C[C@]12C [Rf, ginsenoside Rf]",IC50,[2]; [7],1030 nM
same,In vitro anti-coagulation activity versus normal control,[1],insignificant anti-coagulation effects
